Melting point, inhibition and IC50 data for 16 compounds are collected here from US7691848B2, “Pyrrolobenzodiazepine arylcarboxamides and derivatives thereof as follicle-stimulating hormone receptor antagonists” (Wyeth, priority 2005, dated 2010).

The target in one series is T1, human FSH receptor (Homo sapiens, UniProt P23945).
T1 construct: host or cells: CHO-K1 (CHO FSH-R 6CRE-Luc, 1D7 cells)
T1 sequence (P23945 18-695): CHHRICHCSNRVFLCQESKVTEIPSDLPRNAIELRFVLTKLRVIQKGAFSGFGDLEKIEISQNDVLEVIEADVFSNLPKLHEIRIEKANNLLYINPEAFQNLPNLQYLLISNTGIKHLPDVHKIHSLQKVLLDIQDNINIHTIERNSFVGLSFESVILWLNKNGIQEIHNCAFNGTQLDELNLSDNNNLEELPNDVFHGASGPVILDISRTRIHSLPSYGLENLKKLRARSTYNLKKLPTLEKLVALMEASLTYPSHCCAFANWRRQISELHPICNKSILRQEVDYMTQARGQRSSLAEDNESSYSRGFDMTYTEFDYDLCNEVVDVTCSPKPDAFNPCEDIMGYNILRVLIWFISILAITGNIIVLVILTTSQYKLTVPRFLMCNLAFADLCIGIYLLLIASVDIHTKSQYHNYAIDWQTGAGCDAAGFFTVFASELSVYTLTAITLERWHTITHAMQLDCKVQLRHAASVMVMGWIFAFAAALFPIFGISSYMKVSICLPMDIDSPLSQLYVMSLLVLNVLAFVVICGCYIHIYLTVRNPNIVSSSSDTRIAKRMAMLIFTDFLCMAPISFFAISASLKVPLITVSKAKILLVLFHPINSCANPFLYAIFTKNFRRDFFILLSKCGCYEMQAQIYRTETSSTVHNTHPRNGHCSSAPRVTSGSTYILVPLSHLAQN
In words: Follicle-Stimulating Hormone Receptor-Dependent Cre-Luciferase Reporter Gene Assay (CHO FSH-R 6CRE-Luc cells). It counts as cell-based. Conditions: for inhibition at 30 µM: 2-dose format, concentration in parentheses 30 μM, inhibition of the response to EC50 of FSH; for IC50: dose-response format, in presence of EC50 of purified human FSH. From the text:
Follicle-Stimulating Hormone Receptor-Dependent Cre-Luciferase Reporter Gene Assay for the Identification of Follicle-Stimulating Hormone (FSH) Antagonists
A Chinese hamster ovarian cell line that stably produces the human FSH receptor and a luciferase reporter gene regulated by cAMP response elements was used to identify and determine the relative potencies of human FSH receptor antagonists. See for example, Kelton, C. A., et al. Mol. Cell. Endocrinol. 89:141-151 (1992), Tilly, J. L., et al. Endocrinology 131:799-806(1992), and George, S. E., et al. J. Biomol. Screening 2:235-240 (1997).
Compound Vehicle: Stock compounds were solubilized in an appropriate vehicle, e.g., phosphate buffered saline (PBS) or dimethyl sulfoxide (DMSO), at 30 mM. The compounds were subsequently diluted in DMSO to working dilutions of 1 and 20 or 30 mM for 2-dose testing format and 1 μM-10 mM for dose-response format. The DMSO dilutions were diluted 500-fold in sterile growth medium [D-MEM/F-12 (GIBCO/BRL; Grand Island, NY) containing 15 mM HEPES, 2 mM 1-glutamine, pyridoxine hydrochloride, phenol red and 5% FetalClone® II (HyClone Laboratories, Inc; Logan, Utah), 0.2% DMSO, 100 units penicillin G/ml, and 100 μg streptomycin sulfate/ml (GIBCO/BRL)]. The concentration of the vehicle in each of the compound dilutions was the same.
Positive Controls: Purified human FSH (>98%) was purchased from Cortex Biochem, Inc. (San Leandro, Calif.) and 3-[(2S*,5R*)-5-{[2-(1H-Indol-3-yl)-ethylcarbamoyl]-methyl}-4-oxo-2-(5-phenylethynyl-thiophen-2-yl)-thiazolidin-3-yl]-benzamide (an FSH-R thiazolidinone antagonist) was prepared by processes described by R. A. Scheuerman et al. in U.S. Pat. No. 6,426,357 (Affymax).
The CHO FSH-R 6CRE-Luc cells (1D7 cells) were obtained from Affymax (Palo Alto, Calif.). These Chinese hamster ovary cells (CHO-K1) were engineered genetically to stably express the recombinant human FSH receptor gene and a luciferase reporter gene under the regulation of 6 copies of a cAMP response element. The cells were plated one day prior to treatment into 96-well white opaque plates at a density of 50,000 cells/100 μl/well in growth medium. On the day of treatment, the growth medium was removed from the wells by aspiration and 50 μl of fresh growth medium was added to each well. The cells were incubated at 37° C. in a humidified incubator with 5% CO2/95% air.
The treated cells were incubated for 4 hours at 37° C. in a humidified incubator with 5% CO2/95% air. At the end of the incubation period, luciferase activity was measured by chemiluminescence using a commercially available kit (LucScreen, Tropix, Inc., Bedford, Mass.) according to the manufacturer's specifications, except that Buffer 1 and Buffer 2 were mixed together in equal proportion prior to the addition of 100 μl of the combined reagents to each well. Chemiluminescence was detected using a luminometer (EG & G Berthold Microlumat LB 96 P, Wallac, Gaithersburg, Md.) with chemiluminescence measured for 1 sec/well. Background luminescence was measured for each well prior to the addition of the LucScreen reagent.
In the 96-well 2-dose format, each compound was tested in duplicate at each dose. […] One plate was used to test a maximum of 22 compounds.
The EC50 of purified human FSH alone was tested in triplicate with each test compound. The doses chosen to test each compound were extrapolated from the initial 2-dose screening process. Along with the test compounds, purified human FSH also was tested in a dose response (0.03, 0.1, 0.3, 1, 3, 10, and 30 ng/ml) for a positive control and quality control. One plate was used for 3 test compounds and the FSH positive control.
Luciferase activity is expressed as relative light units/sec/well. Luciferase activity in antagonist was compared to the appropriate negative and positive controls. For 2-dose testing, results are reported as luciferase activity and are expressed as percent inhibition of the response obtained from the EC50 of FSH.
(In general: In a reporter assay the amount or activity of a reporter protein is the signal.)

As a reminder, the melting point is the temperature of the solid-liquid transition. As usually defined, the inhibition is the relative decrease from the control value, in per cent. One may read the IC50 as the concentration needed to halve the response being measured.

`COc1cc(C(=O)N2Cc3ccc(C(=O)NCc4ccc(Cl)cc4)n3Cc3ccccc32)ccc1-c1ccccc1C` [Example 43, N-(4-CHLOROBENZYL)-10-[(2-METHOXY-2′-METHYL-1,1′-BIPHENYL-4-YL)CARBONYL]-10,11-DIHYDRO-5H-PYRROLO[2,1-C][1,4]BENZODIAZEPINE-3-CARBOXAMIDE]: the melting point was in the range of 218 to 219 °C. Moreover, the inhibition at 30 µM at human FSH receptor came out at 56%.
Consider `COc1cc(C(=O)N2Cc3ccc(C(=O)NCc4ccc(OC(F)(F)F)cc4)n3Cc3ccccc32)ccc1-c1ccccc1C` [Example 45, 10-[(2-METHOXY-2′-METHYL-1,1′-BIPHENYL-4-YL)CARBONYL]-N-[4-(TRIFLUOROMETHOXY)BENZYL]-10,11-DIHYDRO-5H-PYRROLO[2,1-C][1,4]BENZODIAZEPINE-3-CARBOXAMIDE], for which the melting point was in the range of 145 to 149 °C. Further, the IC50 at human FSH receptor was > 30 µM.
`COc1cc(C(=O)N2Cc3ccc(C(=O)NCc4ccc(C)cc4C)n3Cc3ccccc32)ccc1-c1ccccc1C` [Example 46, N-(2,4-DIMETHYLBENZYL)-10-[(2-METHOXY-2′-METHYL-1,1′-BIPHENYL-4-YL)CARBONYL]-10,11-DIHYDRO-5H-PYRROLO[2,1-C][1,4]BENZODIAZEPINE-3-CARBOXAMIDE] yielded a melting point of 161 to 162 °C. Further, on human FSH receptor, the inhibition at 30 µM was determined as 44%.
In turn, `COc1ccc(CCNC(=O)c2ccc3n2Cc2ccccc2N(C(=O)c2ccc(-c4ccccc4C)c(OC)c2)C3)cc1` [Example 47, 10-[(2-METHOXY-2′-METHYL-1,1′-BIPHENYL-4-YL)CARBONYL]-N-[2-(4-METHOXYPHENYL)ETHYL]-10,11-DIHYDRO-5H-PYRROLO[2,1-C][1,4]BENZODIAZEPINE-3-CARBOXAMIDE] displayed a melting point of 193 to 195 °C. The IC50 at human FSH receptor is > 30 µM.
For `COc1cc(C(=O)N2Cc3ccc(C(=O)NCCc4ccc(C)cc4)n3Cc3ccccc32)ccc1-c1ccccc1C` [Example 48], the melting point fell in the range of 190 to 192 °C. Moreover, the IC50 at human FSH receptor was > 30 µM.
`COc1cc(C(=O)N2Cc3ccc(C(=O)NCCCCc4ccccc4)n3Cc3ccccc32)ccc1-c1ccccc1C` [Example 49, 10-[(2-METHOXY-2′-METHYL-1,1′-BIPHENYL-4-YL)CARBONYL]-N-(4-PHENYLBUTYL)-10,11-DIHYDRO-5H-PYRROLO[2,1-C][1,4]BENZODIAZEPINE-3-CARBOXAMIDE] showed a melting point of 154 to 159 °C. Further, the IC50 on human FSH receptor is > 30 µM.
`COc1cc(C(=O)N2Cc3ccc(C(=O)NCC(c4ccccc4)c4ccccc4)n3Cc3ccccc32)ccc1-c1ccccc1C` [Example 50]: the melting point fell in the range of 129 to 132 °C. Also, the IC50 at human FSH receptor was > 30 µM.
In the same order, the values of `COc1ccc(CCNC(=O)c2ccc3n2Cc2ccccc2N(C(=O)c2ccc(-c4ccccc4C)c(OC)c2)C3)cc1OC` [Example 52, N-[2-(3,4-DIMETHOXYPHENYL)ETHYL]-10-[(2-METHOXY-2′-METHYL-1,1′-BIPHENYL-4-YL)CARBONYL]-10,11-DIHYDRO-5H-PYRROLO[2,1-C][1,4]BENZODIAZEPINE-3-CARBOXAMIDE] are 150 to 154 °C and > 30 µM.
`COc1cc(C(=O)N2Cc3ccc(C(=O)NCCc4ccc(Cl)cc4)n3Cc3ccccc32)ccc1-c1ccccc1C` [Example 53, N-[2-(4-CHLOROPHENYL)ETHYL]-10-[(2-METHOXY-2′-METHYL-1,1′-BIPHENYL-4-YL)CARBONYL]-10,11-DIHYDRO-5H-PYRROLO[2,1-C][1,4]BENZODIAZEPINE-3-CARBOXAMIDE]: the melting point lay within 195 to 196 °C. Besides, the IC50 at human FSH receptor was > 30 µM.
Compound `COc1cc(C(=O)N2Cc3ccc(C(=O)NCCCc4ccccc4)n3Cc3ccccc32)ccc1-c1ccccc1C` [Example 54, 10-[(2-METHOXY-2′-METHYL-1,1′-BIPHENYL-4-YL)CARBONYL]-N-(3-PHENYLPROPYL)-10,11-DIHYDRO-5H-PYRROLO[2,1-C][1,4]BENZODIAZEPINE-3-CARBOXAMIDE] returned a melting point of 191 °C. Also, the inhibition at 30 µM on human FSH receptor was found to be 46%.
The compound `COc1cc(C(=O)N2Cc3ccc(C(=O)NCc4ccc(N(C)C)cc4)n3Cc3ccccc32)ccc1-c1ccccc1C` [Example 57, N-[4-(DIMETHYLAMINO)BENZYL]-10-[(2-METHOXY-2′-METHYL-1,1′-BIPHENYL-4-YL)CARBONYL]-10,11-DIHYDRO-5H-PYRROLO[2,1-C][1,4]BENZODIAZEPINE-3-CARBOXAMIDE] came in with a melting point of 148 to 150 °C. The IC50 on human FSH receptor is > 30 µM.
`COc1cc(C(=O)N2Cc3ccc(C(=O)NC(C)c4ccccc4)n3Cc3ccccc32)ccc1-c1ccccc1C` (centres unmarked) [Example 58] had a melting point of 211 °C. Further, the IC50 on human FSH receptor is > 30 µM.
`COc1cc(C(=O)N2Cc3ccc(C(=O)NCCC(c4ccccc4)c4ccccc4)n3Cc3ccccc32)ccc1-c1ccccc1C` [Example 59, N-(3,3-DIPHENYLPROPYL)-10-[(2-METHOXY-2′-METHYL-1,1′-BIPHENYL-4-YL)CARBONYL]-10,11-DIHYDRO-5H-PYRROLO[2,1-C][1,4]BENZODIAZEPINE-3-CARBOXAMIDE]: the melting point was 214 °C. On human FSH receptor, the IC50 was > 30 µM.
Regarding `COc1cc(C(=O)N2Cc3ccc(C(=O)NCC(O)c4ccccc4)n3Cc3ccccc32)ccc1-c1ccccc1C` (centres unmarked) [Example 63], the melting point was 214 to 215 °C. For the same compound, the half-maximal inhibitory concentration (IC50) on human FSH receptor was > 30 µM.
In turn, `COc1cc(C(=O)N2Cc3ccc(C(=O)NC4Cc5ccccc5C4)n3Cc3ccccc32)ccc1-c1ccccc1C` [Example 65, N-(2,3-DIHYDRO-1H-INDEN-2-YL)-10-[(2-METHOXY-2′-METHYL-1,1′-BIPHENYL-4-YL)CARBONYL]-10,11-DIHYDRO-5H-PYRROLO[2,1-C][1,4]BENZODIAZEPINE-3-CARBOXAMIDE] showed a melting point of 230 to 231 °C. Moreover, the IC50 on human FSH receptor was > 30 µM.
With `COc1ccccc1-c1ccc(C(=O)N2Cc3ccc(C(=O)NCCc4ccc(O)cc4)n3Cc3ccccc32)cc1C` [Example 66, N-[2-(4-HYDROXYPHENYL)ETHYL]-10-[(2′-METHOXY-2-METHYL-1,1′-BIPHENYL-4-YL)CARBONYL]-10,11-DIHYDRO-5H-PYRROLO[2,1-C][1,4]BENZODIAZEPINE-3-CARBOXAMIDE], the melting point was in the range of 138 to 147 °C. The IC50 on human FSH receptor is > 30 µM.
